Assay results from PubChem BioAssay (NCI).
Values joined by “and” are separate entries in the source; they are usually repeats but may differ in a detail not shown here. Equal values may be shown once.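 Protocol summary: plate cells (96-well), add compound at 5 concentrations, incubate 48 h, interpolate endpoints linearly. Abbreviation: GI50, concentration required for 50% inhibition of growth. TGI marks complete inhibition of growth.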

How the values were obtained:
Experiment in all cases: inhibition of tumour cell growth, NCI panel, 48 h
[1] = system: HCT-116 colon
[2] = system: HT29 colon
[3] = system: MOLT-4 leukemia
[4] = system: NCI/ADR-RES ovarian
[5] = system: OVCAR-5 ovarian
[6] = system: PC-3 prostate
[7] = system: RXF 393 renal
[8] = system: SK-OV-3 ovarian
[9] = system: SN12C renal
[10] = system: TK-10 renal

Structure (SMILES)	GI50 [1] [nM]	TGI [1]	GI50 [2] [µM]	TGI [2]	GI50 [3] [µM]	TGI [3]	GI50 [4] [µM]	TGI [4]	GI50 [5] [µM]	TGI [5]	GI50 [6] [nM]	TGI [6]	GI50 [7] [µM]	TGI [7]	GI50 [8] [µM]	TGI [8]	GI50 [9] [µM]	TGI [9]	GI50 [10] [µM]	TGI [10]
Oc1c(Br)cc(Cl)cc1C(c1cc(Cl)cc(Br)c1O)C(Cl)(Cl)Cl	2120	7.91 µM	3.26	10.6 µM	3.32	9.95 µM	2.48	8.66 µM	3.58	13 µM	2110	8.21 µM	2.73	8.77 µM	2.94	8.93 µM	2.1	11.8 µM	4.3	13.3 µM
CC1=C(C(=O)Nc2ccc3[nH]ncc3c2)C(c2ccc(F)cc2)N=C(c2ccc(C(F)(F)F)nc2)N1 (stereo not given)	13200	> 25 µM	11.5	> 25 µM	11.9	> 25 µM	18.5	> 25 µM	> 25	> 25 µM	13100	> 25 µM	4.31	> 23.5 µM	> 25	> 25 µM	> 22.9	> 25 µM	> 24.1	> 25 µM
N=C(N)SCc1ccc(Cl)c2ccccc12 (tested in a mixture with another compound)		24.5 µM and 28.2 µM		24.2 µM and 26.4 µM		17.3 µM and 4.25 µM		48.1 µM and 55.2 µM		26.8 µM and 27.6 µM		24.3 µM and 25.3 µM		20.5 µM and 22.7 µM		25.9 µM and 28.9 µM		24.3 µM and 24.9 µM		20.9 µM and 19.7 µM
COc1ccccc1CNCCCN1C(=O)c2ccc3c4c(ccc(c24)C1=O)C(=O)N(CCCNCc1ccccc1OC)C3=O	80.5	0.274 µM	0.136	0.425 µM	0.112	0.455 µM	1.19	4.54 µM	0.225	0.597 µM	214	0.608 µM	0.142	0.281 µM	0.352	1 µM	0.151	0.305 µM	0.17	0.466 µM
COc1ccc([C@@H]2[C@@H](Oc3ccccc3)C(=O)N2c2cc(OC)c(OC)c(OC)c2)cc1F	161	2.45 µM	0.211	0.684 µM	0.345	> 100 µM	0.0949	> 100 µM	0.421	> 100 µM	230	> 100 µM	0.0593	> 100 µM	0.38	> 100 µM	0.383	> 100 µM	6.52	> 100 µM
CC(=O)O[C@H]1C[C@@H]2[C@@]3(C)CC[C@H]4C[C@@]4(C)[C@@H]3CC[C@@]2(C)C2=CCC3=C(COC3=O)[C@]21C	19500	43.7 µM	31.6	> 100 µM	33.5	> 100 µM	16.9	36.3 µM	19.3	39.5 µM	18400	46.1 µM	21.2	52.6 µM	32.6	> 100 µM	18.7	38.3 µM	20.4	48.5 µM
CC[C@]12C=CCN3CC[C@@]4(c5ccc(OC)cc5N(C)[C@H]4[C@@](O)(C(=O)OC)[C@@H]1OC(=O)CCCN1CCN(CCCC(=O)O[C@@H]4[C@]5(CC)C=CCN6CC[C@@]7(c8ccc(OC)cc8N(C)[C@H]7[C@@]4(O)C(=O)OC)[C@@H]65)CC1)[C@@H]32	317	1.05 µM	0.324	1.2 µM	0.483	1.87 µM	1.45	3.17 µM	1.82	3.47 µM	350	1.57 µM	0.484	1.72 µM	2.07	3.63 µM	1.14	2.55 µM	1.3	2.78 µM
O=C(O)CSc1cc(NS(=O)(=O)c2ccc(Br)cc2)c2ccccc2c1O	5650	16.2 µM	18.1	78.1 µM	3.08	> 23.3 µM	3.11	13.8 µM	21.6	47.1 µM	5780	43.8 µM	13.8	27.9 µM	18.7	33.2 µM	2.27	5.44 µM	20.3	34.7 µM
C/C(=C\c1csc(C)n1)[C@@H]1C[C@@H]2O[C@]2(C)CCC[C@H](C)[C@H](O)[C@@H](C)C(=O)C(C)(C)[C@@H](O)CC(=O)N1	0.0917	0.0003 µM	8.23e-05	0.000537 µM	0.000115	0.000214 µM	0.000206	0.000412 µM	0.000262	0.000447 µM	< 0.01	< 1e-05 µM			0.00477	0.0595 µM	0.000214	0.000418 µM	0.00534	0.0411 µM
COc1cc2c(cc1C)NC(=O)/C2=C\c1ccc(Oc2ccccc2)cc1	5850	17.7 µM	12.2	25.6 µM			17.4	36.5 µM	18.7	36.5 µM	12400	29.8 µM	19.4	40.6 µM	17	31.4 µM	14.4	27.5 µM	16.8	32.9 µM
C=CCN(CC=C)Cc1c[nH]c2ccccc12	14600	32.1 µM	41.9	> 100 µM	72.7	> 100 µM	18.3	43.8 µM	17	34.6 µM	32400	> 100 µM			> 100	> 100 µM	16	41.8 µM	6.93	38.7 µM
COc1cc2c(cc1OCCN1CCN(CCN3C(=O)c4cccc5cccc(c45)C3=O)CC1)N=C[C@@H]1CCCN1C2=O			22.6	43.9 µM	24.6	62.2 µM	11.9	28.2 µM	19	35 µM	18100	32 µM	14.2	32.2 µM	27.8	46.5 µM	23.2	58.6 µM	19.9	37.1 µM
COc1cc2c(Oc3ccc(-c4cnc(Nc5ccc(F)cc5)n(C)c4=O)cc3F)ccnc2cc1OCCCN1CCOCC1	1190	2.51 µM	0.311	1.64 µM			1.94	6.75 µM	1.04	2.45 µM	2050	6.39 µM	0.759	2.04 µM	1.84	3.39 µM	0.528	2.27 µM	1.94	3.92 µM
CCCCCCCCCCN=C(N)c1ccc(N2CCN(c3ccc(C(N)=NCCCCCCCCCC)cc3)CC2)cc1			3.37	> 50 µM	> 50	> 50 µM	> 50	> 50 µM	5.25	> 50 µM	2940	12.1 µM	6.82	36.1 µM	4.08	> 50 µM	2.19	15.2 µM	8.29	> 50 µM
COc1ccc(-n2c(=O)c3ccccc3n(Cc3ccc(C(=O)NO)cc3)c2=O)cc1	1780	4.16 µM	2.97	22.6 µM	3.21	> 100 µM	18.2	> 100 µM	2.34	7.56 µM	2080	5.06 µM	1.49	3.34 µM	2.45	6.69 µM			2.33	12.9 µM
O=[N+]([O-])c1ccc(/C=C(/c2ccc([N+](=O)[O-])o2)S(=O)(=O)c2ccccc2)cc1		> 100 µM		> 100 µM		37.5 µM		> 100 µM		> 100 µM		> 100 µM		> 100 µM		> 100 µM				> 100 µM
O=S(=O)(O)C(c1ccccc1)C(O)c1ccccc1 (stereo not given)		> 100 µM		> 100 µM				> 100 µM		> 100 µM		> 100 µM		> 100 µM		> 100 µM		> 100 µM		> 100 µM
CN(C)[C@@H]1C(=O)C(C(=O)NCc2nc3[nH]cnc(=S)c3[nH]2)=C(O)[C@@]2(O)C(=O)C3=C(O)c4c(O)cccc4[C@@](C)(O)[C@H]3C[C@@H]12	3300	> 100 µM	8.45	> 100 µM	5.04	> 100 µM	6.13	> 100 µM	> 100	> 100 µM	29700	> 100 µM	26.1	> 100 µM	2	> 100 µM	59.9	> 100 µM		
CN(C)CCCC1(c2ccc(F)cc2)OCc2cc(-c3csc4ccccc34)ccc21 (stereo not given)			1.55	3.46 µM	1.79	3.52 µM	1.59	3.07 µM	1.55	2.95 µM	1730	3.29 µM	1.54	2.95 µM	1.61	3.12 µM	1.63	3.13 µM	1.6	3.16 µM
